Measurements reported in PubChem BioAssay AID1845198 (Molecular Pharmacology Branch, DTP, NCI, 2023).
“And” between values parts separate entries of the source, which are not always exact repeats. Equal entries are not always repeated.

Test system: 425362-245-T-J1 tumor spheroids, viability % test/control
Experiment: Anticancer human tumor 425362-245-T-J1 patient-derived melanoma cell line growth inhibition
Conditions: spheroids with HUVEC and MSC; for viability, T/C: stronger effect = lower value
Procedure, shortened: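 Complex spheroids of malignant cells with endothelial cells and mesenchymal stem cells; agents alone or combined, from near clinical Cmax (or 10 microM if unknown) down in half-log steps, 0.25% DMSO final.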
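Also: spheroids exposed to agents for 7 days.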

Q: For `Cn1ncnc1[C@H]1c2n[nH]c(=O)c3cc(F)cc(c23)N[C@@H]1c1ccc(F)cc1` + CC[C@@]1(O)C(=O)OCc2c1cc1n(c2=O)Cc2cc3c(CN(C)C)c(O)ccc3nc2-1, which IC50 (curve of first compound, second compound 0.003 µM) is on record?
A: < 0.00949 µM

Q: What about the IC50 (curve of first compound, second compound 0.00949 µM) of the same compound?
A: < 0.00949 µM

Q: What about the IC50 (curve of first compound, second compound 0.03 µM) of the same compound?
A: < 0.00949 µM

Q: And the IC50 (curve of first compound, second compound 0.0949 µM)?
A: < 0.00949 µM

Q: And the IC50 (curve of first compound, second compound 0.3 µM)?
A: < 0.00949 µM

Q: And the viability, T/C (second compound 0.003 µM, first compound 0.00949 µM)?
A: 47.8%

Q: What about the viability, T/C (second compound 0.003 µM, first compound 0.03 µM) of the same compound?
A: 30.3%

Q: And the viability, T/C (second compound 0.003 µM, first compound 0.0949 µM)?
A: 17.6%

Q: What about the viability, T/C (second compound 0.003 µM, first compound 0.3 µM) of the same compound?
A: 11.1%

Q: What about the viability, T/C (second compound 0.003 µM, first compound 0.949 µM) of the same compound?
A: 5.98%

Q: And the viability, T/C (second compound 0.003 µM, first compound 3 µM)?
A: 2.38%

Q: And the viability, T/C (second compound 0.00949 µM, first compound 0.00949 µM)?
A: 28.2%

Q: What about the viability, T/C (second compound 0.00949 µM, first compound 0.03 µM) of the same compound?
A: 13.9%

Q: And the viability, T/C (second compound 0.00949 µM, first compound 0.0949 µM)?
A: 9.54%

Q: And the viability, T/C (second compound 0.00949 µM, first compound 0.3 µM)?
A: 9.4%

Q: And the viability, T/C (second compound 0.00949 µM, first compound 0.949 µM)?
A: 6.02%

Q: What about the viability, T/C (second compound 0.00949 µM, first compound 3 µM) of the same compound?
A: 3.27%

Q: And the viability, T/C (second compound 0.03 µM, first compound 0.00949 µM)?
A: 8.39%

Q: And the viability, T/C (second compound 0.03 µM, first compound 0.03 µM)?
A: 8.16%

Q: And the viability, T/C (second compound 0.03 µM, first compound 0.0949 µM)?
A: 7.89%

Q: What about the viability, T/C (second compound 0.03 µM, first compound 0.3 µM) of the same compound?
A: 6.48%

Q: What about the viability, T/C (second compound 0.03 µM, first compound 0.949 µM) of the same compound?
A: 3.96%

Q: And the viability, T/C (second compound 0.03 µM, first compound 3 µM)?
A: 2.32%

Q: What about the viability, T/C (second compound 0.0949 µM, first compound 0.00949 µM) of the same compound?
A: 4.28%

Q: What about the viability, T/C (second compound 0.0949 µM, first compound 0.03 µM) of the same compound?
A: 3.95%

Q: What about the viability, T/C (second compound 0.0949 µM, first compound 0.0949 µM) of the same compound?
A: 3.86%

Q: And the viability, T/C (second compound 0.0949 µM, first compound 0.3 µM)?
A: 3.16%

Q: What about the viability, T/C (second compound 0.0949 µM, first compound 0.949 µM) of the same compound?
A: 2.57%

Q: And the viability, T/C (second compound 0.0949 µM, first compound 3 µM)?
A: 1.79%

Q: What about the viability, T/C (second compound 0.3 µM, first compound 0.00949 µM) of the same compound?
A: 2.13%

Q: What about the viability, T/C (second compound 0.3 µM, first compound 0.03 µM) of the same compound?
A: 1.9%

Q: What about the viability, T/C (second compound 0.3 µM, first compound 0.0949 µM) of the same compound?
A: 1.79%

Q: And the viability, T/C (second compound 0.3 µM, first compound 0.3 µM)?
A: 1.71%

Q: And the viability, T/C (second compound 0.3 µM, first compound 0.949 µM)?
A: 1.43%

Q: What about the viability, T/C (second compound 0.3 µM, first compound 3 µM) of the same compound?
A: 1.33%

Q: With `COc1cc(C)[nH]c(=O)c1CN1CCc2c(Cl)cc(C(OC)C3COC3)c(Cl)c2C1=O` (configuration not stated) as the compound, how does the viability, T/C (compound 0.0316 µM) read?
A: 107% and 103% and 97%

Q: What about the viability, T/C (compound 0.1 µM) of the same compound?
A: 103% (2×) and 108%

Q: What about the viability, T/C (compound 0.316 µM) of the same compound?
A: 106% and 97.8% and 99.9%

Q: And the viability, T/C (compound 1 µM)?
A: 95.9% and 103% and 98.4%

Q: And the viability, T/C (compound 3.16 µM)?
A: 97.4% and 104% and 96.1%

Q: And the viability, T/C (compound 10 µM)?
A: 89.9% and 92.6% and 88.8%

Q: What about the IC50 (curve of compound) of the same compound?
A: > 10 µM

Q: `COc1ccc([C@@H](O)c2cc(-c3ncnc4cc(N5CCOCC5)ccc34)c(F)cc2Cl)nn1` + Cn1nnc2c(C(N)=O)ncn2c1=O was tested. Which IC50 (curve of first compound, second compound 1 µM) did it give?
A: 2.3 µM

Q: What about the IC50 (curve of first compound, second compound 3.16 µM) of the same compound?
A: 2.57 µM

Q: What about the IC50 (curve of first compound, second compound 10 µM) of the same compound?
A: 2.5 µM

Q: And the IC50 (curve of first compound, second compound 31.6 µM)?
A: 2.67 µM

Q: And the IC50 (curve of first compound, second compound 100 µM)?
A: 2.1 µM

Q: And the viability, T/C (second compound 1 µM, first compound 0.0316 µM)?
A: 91%

Q: What about the viability, T/C (second compound 1 µM, first compound 0.1 µM) of the same compound?
A: 95.6%

Q: And the viability, T/C (second compound 1 µM, first compound 0.316 µM)?
A: 87.5%

Q: And the viability, T/C (second compound 1 µM, first compound 1 µM)?
A: 70.2%

Q: And the viability, T/C (second compound 1 µM, first compound 3.16 µM)?
A: 42.5%

Q: And the viability, T/C (second compound 1 µM, first compound 10 µM)?
A: 19.1%

Q: And the viability, T/C (second compound 3.16 µM, first compound 0.0316 µM)?
A: 101%

Q: And the viability, T/C (second compound 3.16 µM, first compound 0.1 µM)?
A: 111%

Q: And the viability, T/C (second compound 3.16 µM, first compound 0.316 µM)?
A: 104%

Q: And the viability, T/C (second compound 3.16 µM, first compound 1 µM)?
A: 76.2%

Q: What about the viability, T/C (second compound 3.16 µM, first compound 3.16 µM) of the same compound?
A: 45.7%

Q: What about the viability, T/C (second compound 3.16 µM, first compound 10 µM) of the same compound?
A: 20.3%

Q: And the viability, T/C (second compound 10 µM, first compound 0.0316 µM)?
A: 111%

Q: What about the viability, T/C (second compound 10 µM, first compound 0.1 µM) of the same compound?
A: 117%

Q: And the viability, T/C (second compound 10 µM, first compound 0.316 µM)?
A: 113%

Q: And the viability, T/C (second compound 10 µM, first compound 1 µM)?
A: 74.8%

Q: And the viability, T/C (second compound 10 µM, first compound 3.16 µM)?
A: 46.6%

Q: And the viability, T/C (second compound 10 µM, first compound 10 µM)?
A: 22.2%

Q: And the viability, T/C (second compound 31.6 µM, first compound 0.0316 µM)?
A: 110%

Q: And the viability, T/C (second compound 31.6 µM, first compound 0.1 µM)?
A: 109%

Q: What about the viability, T/C (second compound 31.6 µM, first compound 0.316 µM) of the same compound?
A: 94%

Q: What about the viability, T/C (second compound 31.6 µM, first compound 1 µM) of the same compound?
A: 78.9%

Q: And the viability, T/C (second compound 31.6 µM, first compound 3.16 µM)?
A: 44%

Q: What about the viability, T/C (second compound 31.6 µM, first compound 10 µM) of the same compound?
A: 20.8%

Q: And the viability, T/C (second compound 100 µM, first compound 0.0316 µM)?
A: 101%

Q: And the viability, T/C (second compound 100 µM, first compound 0.1 µM)?
A: 84.7%

Q: And the viability, T/C (second compound 100 µM, first compound 0.316 µM)?
A: 82.2%

Q: And the viability, T/C (second compound 100 µM, first compound 1 µM)?
A: 65.1%

Q: And the viability, T/C (second compound 100 µM, first compound 3.16 µM)?
A: 40.3%

Q: What about the viability, T/C (second compound 100 µM, first compound 10 µM) of the same compound?
A: 20.5%
